Experimental data published in patent US20040072907A1, “Antipicornaviral compounds, compositions containing them, and methods for their use” (priority 1997, published 2004).
Where two headings read alike, the source gives them in different places.

Legend:
[1] = tested on: HI-HeLa cells; experiment: Cytotoxicity in mock-infected HI-HeLa cells (XTT, antirhinoviral assay); type: cell-based; conditions: mock-infected HI-HeLa cells, read-out: CC50
Procedure: (§1) In the Cell Protection Assay, the ability of compounds to protect cells against HRV infection was measured by the XTT dye reduction method. This method is described in Weislow, O. S., Kiser, R., Fine, D. L., Bader, J., Shoemaker, R. H., Boyd, M. R., J. Natl. Cancer Inst. 1989, 81, 577-586, the disclosure of which is incorporated herein by reference.
(§2) Infected or mock-infected cells were resuspended at 8×10^5 cells per mL and incubated with appropriate concentrations of compounds of formula I. Two days later, XTT/PMS was added to test plates, and the amount of formazan produced was quantified spectrophotometrically at 450/650 nm. […] The therapeutic index (TI) was calculated by dividing the CC50 by the EC50.
HRV stocks were propagated, and viral assays were performed in HI-HeLa cells (ATCC). Cells were grown in Minimal Essential Medium, available from Life Technologies, with 10% fetal bovine serum.

[2] = target: T1, Recombinant Rhinovirus 3C protease serotype 2 (Human rhinovirus 2, UniProt P04936); type: biochemical
T1 construct: Recombinant Rhinovirus 3C proteases from serotypes 14, 16, and 2; made in house

[3] = target: T2, Recombinant Rhinovirus 3C protease serotype 14 (Human rhinovirus 14, UniProt P03303); experiment: biochemical
T2 construct: Recombinant Rhinovirus 3C proteases from serotypes 14, 16, and 2; made in house

[4] = target: Recombinant Rhinovirus 3C protease serotype 16 (Human rhinovirus 16, UniProt Q82122); type: biochemical
Procedure: Stock solutions (50 mM, in DMSO) of various compounds were prepared; dilutions were in the same solvent. […] Assays contained 2% DMSO, 50 mM tris pH 7.6, 1 mM EDTA, a compound at the indicated concentrations, approximately 1 μM substrate, and 50-100 nM protease. […] The kobs/I values were obtained from reactions initiated by addition of enzyme rather than substrate. RVP activity is measured in the fluorescence resonance energy transfer assay. […] In the uncleavaed peptide, the EDANS fluorescence was quenched by the proximal DABCYL moiety. When the peptide was cleaved, the quenching was relieved, and activity was measured as an increase in fluorescence signal.
In the above table, all data are for RVP serotype-14 unless otherwise noted in parentheses. All strains of human rhinovirus (HRV) were purchased from American Type Culture Collection (ATCC) except for serotype 14, which was produced from the infectious cDNA clone constructed and supplied to Applicants by Dr. Robert Rueckert at the Institute for Molecular Virology, University of Wisconsin, Madison, Wis. The column designated INHIB represents the percent inhibition at 10 minute preincubation with 50 nM RVP prior to addition of substrate. The data in the column designated kobs/I was measured from progress curves enzyme start experiments.

[5] = tested on: HRV serotype-14; experiment: Antirhinoviral HI-HeLa cell culture assay (XTT cell protection), HRV-14; type: cell-based, human rhinovirus; conditions: HRV serotype-14, HI-HeLa cells, m.o.i. 0.13, two days, XTT; read-out: EC50
Procedure: as §1, §2
All strains of human rhinovirus (HRV) for use in this assay were purchased from American Type Culture Collection (ATCC) except for HRV serotype-14, which was produced from the infectious cDNA clone constructed and supplied to Applicants by Dr. Robert Rueckert at the Institute for Molecular Virology, University of Wisconsin, Madison, Wis. HRV stocks were propagated, and viral assays were performed in HI-HeLa cells (ATCC). Cells were grown in Minimal Essential Medium, available from Life Technologies, with 10% fetal bovine serum.
The compounds were tested against control compounds WIN 51711, WIN 52084, and WIN 54954, all obtained from Sterling-Winthrop Pharmaceuticals, and control compound Pirodavir, obtained from Janssen Pharmaceuticals. Antiviral data obtained for the test compounds are shown in Table 2 where all data are for HRV serotype-14 unless otherwise noted in parentheses.

T2 sequence (P03303 1538-1719): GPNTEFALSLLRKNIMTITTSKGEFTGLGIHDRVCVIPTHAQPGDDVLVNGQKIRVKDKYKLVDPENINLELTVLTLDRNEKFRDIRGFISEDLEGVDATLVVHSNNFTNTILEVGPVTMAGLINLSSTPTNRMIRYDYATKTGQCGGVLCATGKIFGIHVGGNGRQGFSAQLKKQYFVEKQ
T1 sequence (P04936 1508-1690): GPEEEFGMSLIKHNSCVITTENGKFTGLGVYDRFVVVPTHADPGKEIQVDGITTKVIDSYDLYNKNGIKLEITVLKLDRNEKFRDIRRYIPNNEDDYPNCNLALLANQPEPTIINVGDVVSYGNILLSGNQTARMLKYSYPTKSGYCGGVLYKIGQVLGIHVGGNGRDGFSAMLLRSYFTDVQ
Sequence of Recombinant Rhinovirus 3C protease serotype 16 (Q82122 1511-1693): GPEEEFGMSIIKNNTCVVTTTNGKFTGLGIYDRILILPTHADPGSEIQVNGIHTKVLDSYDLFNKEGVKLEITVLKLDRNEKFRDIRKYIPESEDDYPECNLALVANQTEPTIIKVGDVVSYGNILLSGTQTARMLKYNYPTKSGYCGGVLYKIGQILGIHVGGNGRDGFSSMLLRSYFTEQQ

| SMILES | CC50 ([1]; line for HRV serotype-14) | kobs/I [2] | kobs/I [3] | kobs/I [4] | CC50 ([1]; line for HRV serotype 2) | also measured |
| --- | --- | --- | --- | --- | --- | --- |
| CCOC(=O)/C=C/C(CCC(N)=O)NC(=O)C(CC(=O)C(CC(C)C)NC(=O)OCc1ccccc1)Cc1ccccc1 [Compound 1, Ethyl-3-(CBZ-L-LeuΨ[COCH2]-L-Phe-L-Gln)-E-Propenoate] | > 320000 nM | – | – | – | – | – |
| CCOC(=O)/C=C/[C@H](CCC(N)=O)NC(=O)[C@@H](CC(=O)[C@H](CC(C)C)NC(=O)SCC)Cc1ccccc1 [Compound 2, Ethyl-3-(EtSCO-L-LeuΨ[COCH2]-L-Phe-L-Gln)-E-Propenoate] | – | 4,600 M^−1sec^−1 | 47,000 M^−1sec^−1 | 10,410 M^−1sec^−1 | > 320000 nM | – |
| CCOC(=O)/C=C/[C@H](CCC(N)=O)NC(=O)[C@@H](CC(=O)[C@@H](NC(=O)SCC)C(C)C)Cc1ccccc1 [Compound 4, Ethyl-3-(EtSCO-L-ValΨ[COCH2]-L-Phe-L-Gln)-E-Propenoate] | > 320000 nM | 17,800 M^−1sec^−1 | 180,000 M^−1sec^−1 | 34,600 M^−1sec^−1 | – | – |
| CCOC(=O)/C=C/C(CCC(N)=O)NC(=O)C(CC(=O)C(NC(=O)SCc1ccccc1)C(C)C)Cc1ccccc1 [Compound 5, Ethyl-3-(BnSCO-L-ValΨ[COCH2]-L-Phe-L-Gln)-E-Propenoate] | – | 26,900 M^−1sec^−1 | 500,000 M^−1sec^−1 | 89,700 M^−1sec^−1 | – | – |
| CCOC(=O)/C=C/C(CCC(N)=O)NC(=O)C(CC(=O)C(CC(C)C)NC(=O)SCc1ccccc1)Cc1ccccc1 [Compound 6, Ethyl-3-(BnSCO-L-LeuΨ[COCH2]-L-Phe-L-Gln)-E-Propenoate] | – | 13,350 M^−1sec^−1 | 87,600 M^−1sec^−1 | 23,230 M^−1sec^−1 | – | – |
| CCOC(=O)/C=C/[C@H](CCC(N)=O)NC(=O)[C@@H](CC(=O)[C@H](CC(C)C)NC(=O)SC1CCCC1)Cc1ccccc1 [Compound 8, Ethyl-3-(CyPentylSCO-L-LeuΨ[COCH2]-L-Phe-L-Gln)-E-Propenoate] | – | 7,000 M^−1sec^−1 | 55,700 M^−1sec^−1 | 14,200 M^−1sec^−1 | – | kobs/I ([2]; RVP serotype 2, progress curves, enzyme start experiments): 7,000 M^−1sec^−1 |
| CCOC(=O)/C=C/[C@H](CCC(N)=O)NC(=O)[C@@H](CC(=O)[C@@H](NC(=O)SCC)C(C)C)Cc1ccc(C)cc1 [Compound 10, Ethyl-3-(EtSCO-L-ValΨ[COCH2]-L-(p-CH3)Phe-L-Gln)-E-Propenoate] | – | – | 440,000 M^−1sec^−1 | – | > 1000 nM | – |
| CCOC(=O)/C=C/C(CCC(N)=O)NC(=O)C(CC(=O)C(NC(=O)SC1CCCC1)C(C)C)Cc1ccc(C)cc1 [Compound 11, Ethyl-3-(CyPentylSCO-L-ValΨ[COCH2]-L-(p-CH3)Phe-L-Gln)-E-Propenoate] | – | – | 850,000 M^−1sec^−1 | – | > 3000 nM | CC50 ([1]; line for HRV serotype 1A): > 3000 nM; CC50 ([1]; line for HRV serotype 10): > 3000 nM; CC50 ([1]; line for HRV serotype 16): > 3000 nM; CC50 ([1]; line for HRV serotype 39): > 3000 nM |
| CCOC(=O)/C=C/C(CCC(N)=O)NC(=O)C(CC(=O)C(Cc1ccccc1)NC(=O)SC1CCCC1)Cc1ccc(C)cc1 [Compound 12, Ethyl-3-(CyPentylSCO-L-PheΨ[COCH2]-L-(p-CH3)Phe-L-Gln)-E-Propenoate] | > 1000 nM | – | – | – | – | EC50 [5]: 140 nM; kobs/I ([3]; RVP serotype-14, progress curves, enzyme start experiments): 404,000 M^−1sec^−1 |
| CCOC(=O)/C=C/[C@H](CCC(N)=O)NC(=O)[C@@H](CC(=O)[C@@H](NC(=O)SCC)C(C)C)Cc1ccc(F)cc1 [Compound 13, Ethyl-3-(EtSCO-L-ValΨ[COCH2]-L-(p-F)Phe-L-Gln)-E-Propenoate] | > 3000 nM | – | – | – | – | – |
